The data set can be described thus: Aqueous solubility of the compound of formula (I). The format is physicochemical. From the text:
Current formulations of HIV protease inhibitors for oral administration are in powder or tablet form. However, HIV protease inhibitors in these oral formulations are generally poorly soluble and, therefore, poorly bioavailable for the above reasons. […] In addition, the compound of formula (I) is poorly wetted. Therefore, formulating the compound using standard formulary techniques is difficult and leads in any event to a formulation with low bioavailability.

For orientation: solubility means how much of the substance goes into solution per volume. Consider `CC(C)CN(C[C@@H](O)[C@H](Cc1ccccc1)NC(=O)O[C@H]1CCOC1)S(=O)(=O)c1ccc(N)cc1` (relative stereo) [compound of formula (I), 3S-[3R*(1R*, 2S*)]-[3-[[(4-aminophenyl)sulphonyl](2-methylpropyl)-amino]-2-hydroxy-1-phenylmethyl)propyl]carbamic acid, tetrahydro-3-furanyl ester], for which the “variation of aqueous solubility with pH” value (FIG. 1) is “does not significantly vary with pH”. Further, the solubility (water (aqueous), room temperature) stood at 95 µg/mL.

The record behind these values is patent US6730679B1, “Pharmaceutical formulations” (SmithKline Beecham Corporation, priority 1996, dated 2004).
